Experimental data taken from PubChem BioAssay AID2305 (GlaxoSmithKline (GSK), 2010).
Values joined by “and” are separate entries in the source; they are usually repeats but may differ in a detail not shown here. Equal values may be shown once.

The compounds below were run on P. falciparum 3D7 growth, pLDH absorbance (assay: P. falciparum 3D7 growth inhibition, dose response, strain 3D7 (AID 2305)).
`COc1ccc(C(=O)O)cc1OCc1ccccc1` was tested, and the IC50 was 820 nM.
`Clc1ccc(Cc2nc3ccccc3[nH]2)cc1Cl` was tested, and the IC50 was 250 nM.
`O=C(NC1CC1)c1cnc(N2CCC(c3ccccc3)CC2)c(Cl)c1` showed an IC50 of 850 nM.
`Cc1cc(OCc2ccccc2)c(OCc2ccccc2)cc1C(O)CN(C)Cc1ccccc1` (centres undefined) gave an IC50 of 810 nM.
`N#CCCN1CCN(Cc2ccc(-c3ccc(-c4nc5ccc(F)cc5[nH]4)s3)cc2)CC1` gave an IC50 of 660 nM.
`CC(=O)C1(c2ccccc2)CCN(CCC2(c3ccc(Cl)c(Cl)c3)CN(C(=O)Nc3cc(F)cc(F)c3)CCO2)CC1` (centres undefined) was tested, and the IC50 was 1480 nM.
Work on `Cc1cccc2[nH]c(-c3cccc(-c4ccc(NC(=O)COc5ccccc5C(N)=O)cc4)c3)nc12` yielded an IC50 of 890 nM.
`CCN(CC(C)O)C(=O)c1ccc(-c2cccc(-c3nc4c(C)cccc4[nH]3)c2)cc1` (centres undefined) gave an IC50 of 640 nM.
Work on `Cc1noc(-c2ccccc2)c1NC(=O)NC1CCN(CCCCCNC(=O)/C=C/c2ccc(Cl)c(Cl)c2)CC1` yielded an IC50 of 990 nM.
Compound `O=C(Nc1cccc(CN2CCN(Cc3ccc(O)cc3)CC2)c1)c1cccc(C(F)(F)F)c1` has an IC50 of 1210 nM.
Compound `Cc1ccc(Cn2nc(Cl)c(N3CCCNCC3)cc2=O)cc1NC(=O)Nc1ccc(-c2ccccc2)cc1` has an IC50 of 670 nM.
Compound `Cc1cc(C2CCN(CCCCNC(=O)c3ccc(-c4ccc(C(F)(F)F)cc4)cc3)CC2)c(C)cc1OCCOC1CCCCO1` (centres undefined) has an IC50 of 790 nM.
Work on `Cn1ccnc1CCC(=O)Nc1ccc(Cl)cc1C(=O)Nc1ccc(Cl)cc1` yielded an IC50 of 1560 nM.
In the case of `CCCOc1c(CCNCCCCNCCc2ccc3ccccc3c2OCCC)ccc2ccccc12`, the IC50 is reported as 480 nM.
`CS(=O)(=O)CCNCc1ccc(-c2ccc3c(Nc4ccc(F)cc4Cl)ccnc3c2)o1` was tested, and the IC50 was 740 nM.
`COc1cc(-c2cc3cc(Cl)c(Cl)cc3[nH]2)ccc1C(=O)NC1CCN(Cc2ccccc2)CC1` was tested, and the IC50 was 530 nM.
In the case of `Cc1ccc(CNc2cc(C(F)(F)F)nc(-c3ccc(S(C)(=O)=O)cc3)n2)cc1`, the IC50 is reported as 500 nM.
In the case of `Nc1nonc1-c1nc2c(-c3cccc(Cl)c3)nccc2n1CCCNC(=O)Cc1ccc(Cl)cc1`, the IC50 is reported as 270 nM.
In the case of `CC(C)(C)CCN1CCC(CNC(=O)c2cc(-c3cccc(Cl)c3)cs2)C1` (centres undefined), the IC50 is reported as 820 nM.
With `COc1cc(Nc2nccc(-c3c(-c4cccc(NC(=O)c5c(F)cccc5F)c4)nn4ncccc34)n2)cc(OC)c1OC` the IC50 was 30 nM.
In the case of `O=C(Nc1ccccc1C(F)(F)F)NC1CCC(CN2CCC(c3c[nH]c4ccccc34)CC2)CC1` (centres undefined), the IC50 is reported as 950 nM and 780 nM.
Work on `CN(C)S(=O)(=O)c1ccc(N2C(=O)[C@@H]3[C@H](C2=O)[C@@]2(c4ccccc4)C(=O)[C@]3(c3ccccc3)C(c3ccccc3)=C2c2ccccc2)cc1` yielded an IC50 of 950 nM.
For `CCNc1cc(C(=O)N[C@@H](Cc2ccccc2)[C@H](O)CNC(C)Cc2cccc(Cl)c2)cc(N2CCCCS2(=O)=O)c1` (some centres undefined), the IC50 was 500 nM.
For `Oc1ccc2[nH]c(-c3ccc(OC(F)(F)F)cc3)nc2c1CNC1CCCC1`, the IC50 was 1750 nM.
With `COc1ccc(C(=O)[C@H]2C[C@@H]2CN2CC=C(c3c(C)[nH]c4ccccc34)CC2)cc1` the IC50 was 300 nM.
`O=C(Nc1ccc(Cl)cc1)c1ccc(CN2CCCN(Cc3cccc(O)c3)CC2)cc1` gave an IC50 of 390 nM.
`COc1ccc(N2CCN(CCCCNC(=O)c3ccc(NC(=O)c4cc(C(F)(F)F)cc(C(F)(F)F)c4)cc3)CC2)c(OC)c1` gave an IC50 of 150 nM.
`O=C(N[C@H]1CCN(Cc2ccc(OCCCN3CCCCC3)cc2)C1)c1ccc(Oc2ccccc2)cc1` was tested, and the IC50 was 780 nM.
For `O=C(Nc1cccc(-c2ccc(-c3nc4ccc(F)cc4[nH]3)cc2)c1)Nc1ccc(Cl)c(Cl)c1`, the IC50 was 140 nM.
In the case of `Oc1ccc(-c2ccccc2)cc1CNC1CCCCC1`, the IC50 is reported as 500 nM.
`COc1ccc(C=NNc2cc(C)nc3ccccc23)cc1OC` showed an IC50 of 860 nM.
With `Cc1[nH]c(C)c(-c2ccc(-c3ccc(OCC(F)(F)F)cc3)nc2)c(=O)c1Cl` the IC50 was 390 nM.
`CC(C)CCNC(=O)[C@@H]1[C@H]2C(=O)N(C3CCCCC3)C(=O)[C@H]2[C@H]2C=C[C@@H]3C(c4ccc(C(C)(C)C)cc4)=NO[C@@H]3N21` was tested, and the IC50 was 790 nM.
With `Cc1[nH]c(C)c(-c2ccc(C(F)(F)F)cc2)c(=O)c1Br` the IC50 was 140 nM.
With `COC(=O)C(C)(C)c1ccc(CC(C)NCC(O)c2cccc(C(F)(F)F)c2)cc1` (centres undefined) the IC50 was 840 nM.
For `O=C(Cn1c(CCc2cccc(F)c2F)nc(=O)c2ccccc21)N(CCN1CCCCC1)Cc1ccc(-c2ccc(C(F)(F)F)cc2)cc1`, the IC50 was 760 nM.
For `O=C(c1ccc(-c2ccc(-c3nc4ccccc4[nH]3)s2)cc1)N1CCCCC1CN1CCC(O)C1` (centres undefined), the IC50 was 1050 nM.
In the case of `O=C(NCCCCN1CCC(c2c[nH]c3ccc(-c4ccccc4)cc23)CC1)c1ccc(-c2ccccc2)cc1`, the IC50 is reported as 990 nM.
`COc1cccc2sc(Nc3nc(-c4ccccn4)cs3)nc12` was tested, and the IC50 was 800 nM.
Work on `CCCN(Cc1nnc(-c2cccs2)o1)C(=O)C1COc2ccccc2O1` (centres undefined) yielded an IC50 of 850 nM.
Compound `CCOc1ccc2nc(N(CCCn3ccnc3)C(=O)C=Cc3cccs3)sc2c1` has an IC50 of 780 nM.
Compound `COc1ccc2nc(C)cc(Nc3ccc(Oc4ccc5ccccc5c4)c(Cl)c3)c2c1` has an IC50 of 690 nM.
In the case of `CC[C@H]1CN2CC[C@H]1C[C@H]2[C@H](O)c1cc(-c2ccc(F)cc2)nc2ccc(OC)cc12`, the IC50 is reported as 50 nM.
Compound `Cc1ccc(NC(=S)NC2CCN(CCCCCNC(=O)/C=C/c3ccc(Cl)c(Cl)c3)CC2)cc1Cl` has an IC50 of 990 nM.
`O=C(Nc1ccc(C(=O)N2CCN(CCN3CCN(c4cccc(C(F)(F)F)c4)CC3)CC2)cc1)c1ccc(C(F)(F)F)cc1` gave an IC50 of 690 nM.
`CC(C)C[C@H](Nc1ccc(C#N)c2ccccc12)C(=O)N[C@@H]1CCCc2ccccc21` gave an IC50 of 760 nM.
`CCNc1cc(C(=O)N[C@@H](Cc2ccco2)[C@H](O)CNC2CCCCC2)cc(N2CCCCS2(=O)=O)c1` gave an IC50 of 1010 nM.
With `O=C(Nc1ccc(Br)cc1)N1CCC(n2c(-c3ccccc3)nc3cccnc32)CC1` the IC50 was 760 nM.
With `O=C(/C=C/c1ccc(C(F)(F)F)cc1)N1CCc2cc3nccc(N4CCN5CCC[C@H]5C4)c3cc21` the IC50 was 1510 nM.
For `CCCCCCCCN1CCCN(C(=O)c2cccc(NC(=O)Nc3ccc4ccccc4c3)c2)CC1`, the IC50 was 760 nM.
In the case of `O=C(Nc1ccc2oc(-c3ccc(Cl)cc3Cl)nc2c1)c1ccc([N+](=O)[O-])o1`, the IC50 is reported as 1100 nM.
Work on `CCn1ncc2c(N3CCCC3=O)cc(C(=O)N[C@@H](Cc3ccccc3)[C@H](O)CNC(C)(C)c3cccc(C(F)(F)F)c3)cc21` yielded an IC50 of 150 nM.
`CCN(CCCN1CCCCC1)c1cc(C)nc(Nc2cccc(C(F)(F)F)c2)n1` showed an IC50 of 290 nM.
Compound `N#CCCN1CCN(Cc2cccc(-c3ccc(-c4nc5ccc(F)cc5[nH]4)cc3)c2)CC1` has an IC50 of 600 nM.
In the case of `OC1(CNCc2ccccc2)CCN(CCc2c[nH]c3ccc(F)cc23)CC1`, the IC50 is reported as 710 nM.
In the case of `COc1ccc(C2SCC(=O)N2CCc2ccc(OC)c(OC)c2)cc1` (centres undefined), the IC50 is reported as 310 nM.
Compound `CCCCCCCCn1ccc(=N)cc1` has an IC50 of 840 nM.
Compound `N[C@@H](Cc1cc(I)c(Oc2ccc(O)c(Cl)c2)c(I)c1)C(=O)O` has an IC50 of 990 nM.
`COc1ccc(CN2CCN(CCCCNC(=O)c3ccc(NC(=O)c4ccc(Cl)cc4)cc3)CC2)c(OC)c1` was tested, and the IC50 was 890 nM.
`O=C(Nc1cccc(-c2nn3ccccc3c2-c2ccnc(Nc3ccc(C(=O)N4CCOCC4)cc3)n2)c1)c1c(F)cccc1F` gave an IC50 of 380 nM.
`CCCCCCC(C)c1cc(O)c2c(c1)OC(=O)CC2(CC)c1ccccn1` (centres undefined) was tested, and the IC50 was 330 nM.
`COc1ccc(-c2ccc(NC(=O)c3cccc(Cl)c3)cc2)cc1CN1CCN(C)CC1` was tested, and the IC50 was 950 nM.
Work on `COc1ccc(CCN(C)CCCN2CCC(NC(=O)c3cccc4c(=O)c5ccccc5[nH]c34)CC2)cc1OC` yielded an IC50 of 690 nM.
Compound `COc1cc2nc(N3CCN(C(=O)c4ccco4)CC3)nc(NCc3ccccc3)c2cc1OC` has an IC50 of 170 nM.
`Nc1nc(N)c2nc(C3CC=CCC3)c(N)nc2n1` (centres undefined) showed an IC50 of 160 nM.
`CC1CCN(CC[C@H]2CCCN2S(=O)(=O)c2cccc(NC(=O)Nc3ccc(C(F)(F)F)cc3)c2)CC1` showed an IC50 of 720 nM.
`COc1ccc2nccc([C@@H](O)CN3CCC(NC(=O)c4cccc(C(=O)c5ccccc5)c4)CC3)c2c1` showed an IC50 of 690 nM.
With `Oc1ccc(CCCNc2nc(NCc3cccc4ccccc34)nc(N3CCNCC3)n2)cc1` the IC50 was 810 nM.
In the case of `O=C(NCC(NCCCNc1cc(=O)c2ccccc2[nH]1)c1cc(Br)cc(Br)c1)C1=CCCC1` (centres undefined), the IC50 is reported as 900 nM.
Compound `CC(C)(C)c1ccc(C(=O)N2CCC3(CC2)C(=O)N(CC(=O)NCC2CCCO2)CN3c2ccccc2)cc1` (centres undefined) has an IC50 of 230 nM.
Work on `O=C(c1cc(C(=O)NC2CCCCC2)c(=O)n(C2CCCCC2)c1)c1cc(F)ccc1O` yielded an IC50 of 630 nM.
In the case of `Cn1c(NC(=O)CCCCCNC(=O)c2ccc(O)c(-c3ccc(Cl)c(Cl)c3)c2)nc2ccccc21`, the IC50 is reported as 730 nM.
Work on `CC(=O)CCc1ccc(OCCN(Cc2ccccc2C(F)(F)F)c2ccc(C#N)c(C(F)(F)F)c2)cc1` yielded an IC50 of 270 nM.
In the case of `CCNc1cc(C(=O)N[C@@H](Cc2ccccc2)[C@H](O)CNC(C)CC(C)C)c(F)c(N2CCCCS2(=O)=O)c1` (some centres undefined), the IC50 is reported as 1120 nM.
With `O=C(NNC(=O)c1ccc(CCN2CCC(c3nc(COCC(F)(F)F)c(-c4ccc(F)cc4)o3)CC2)cc1)Nc1ccc(Oc2ccccc2)cc1` the IC50 was 710 nM.
For `O=C(N[C@@H](Cc1ccccc1)CN1CCC(Oc2ccc(F)cc2)CC1)c1ccc(OCCCN2CCCCC2)cc1`, the IC50 was 890 nM.
Work on `COc1ccc2nc(Nc3nc(-c4ccccn4)cs3)sc2c1` yielded an IC50 of 1120 nM.
`CCN(CC)C(=NCCCCCCN=C(/N=C(\N)c1ccc(Cl)cc1)N(CC)CC)/N=C(\N)c1ccc(Cl)cc1` showed an IC50 of 380 nM.
`NCCNc1ccnc2cc(Cl)ccc12` was tested, and the IC50 was 130 nM.
`Cc1nc2c(Nc3nc(-c4ccncc4)cs3)ncnc2n1-c1ccccc1Cl` gave an IC50 of 180 nM.
`O=C(c1ccc([N+](=O)[O-])o1)N1CCN(c2ccccc2)CC1` showed an IC50 of 40 nM.
In the case of `CCOc1ccc2nccc([C@@H](O)[C@@H]3C[C@@H]4CCN3C[C@@H]4CC)c2c1`, the IC50 is reported as 110 nM and 610 nM.
In the case of `CC(CN1CCN(C)CC1)C(=O)Nc1cccc(-c2ccc(-c3nc4ccccc4[nH]3)cc2)c1` (centres undefined), the IC50 is reported as 940 nM.
Compound `c1ccc2c(NCCc3cnc[nH]3)c3ccccc3nc2c1` has an IC50 of 1040 nM.
`COc1cc(Nc2nccc(N3CCC(NC(=O)C(C)c4ccc(Cl)cc4)C3)n2)cc(OC)c1OC` (centres undefined) showed an IC50 of 760 nM.
`COc1ccc(CNC2CCN(C)CC2)cc1-c1ccc(S(=O)(=O)NCC2CCCO2)s1` (centres undefined) gave an IC50 of 800 nM.
Work on `COc1cccc(C(=O)Nc2nc3c(s2)CCN(Cc2ccccc2N2CCNCC2)CC3)c1` yielded an IC50 of 890 nM.
For `O=C(Nc1cc2cc(-c3ccc(CN4CCCCC4)cc3)ccc2n2cnnc12)NC1CCCC1`, the IC50 was 1520 nM.
`Cc1cc(NC(=O)c2ccco2)ccc1OC1CCN(Cc2ccccc2)CC1` showed an IC50 of 530 nM.
Work on `COc1ccc(Nc2ncc(C#N)c(Nc3ccccc3C(N)=O)n2)cc1N1CCN(C)CC1` yielded an IC50 of 140 nM.
`COc1cc(C(=O)NC2CCc3ccccc32)cc(Cl)c1OC` (centres undefined) showed an IC50 of 1100 nM.
In the case of `CC1(CCc2ccccc2)N=C(N)N=C(N)C1c1ccc(Cl)c(Cl)c1` (centres undefined), the IC50 is reported as 320 nM.
Compound `COc1cc(OC)cc(-c2nc3c(C#N)c(OCCN(C)C)ccc3[nH]2)c1` has an IC50 of 650 nM.
`CC(Cc1ccc(SC(C)C)cc1)NCC(O)c1cccc(Cl)c1` (centres undefined) was tested, and the IC50 was 830 nM.
